Tests used:
AF EGMs in HF [1] = assay: Acute ROS blockade during induced AF in pacing-induced HF dogs, epicardial AF EGM mapping; assay type: in vivo, dog; conditions: for effect on AF EGM parameters (DF, OI, FI, ShEn): apocynin 10 mg/kg
Protocol: HF: In 4 animals, rapid RV pacing was performed at 240 beats/min for 3-4 weeks to induce HF. AF was then induced and AF EGMs recorded by an epicardial, multielectrode plaque (130 electrodes; […]). Apocynin (an NAPDH oxidase inhibitor) was then given (10 mg/kg) acutely. After apocynin administration, AF slowed and then terminated within 5 minutes (in every experiment). […] After apocynin washout (90 minutes), AF was re-induced and mito-TEMPO was given (0.7 mg/kg). […] The atrial tissue was then removed and examined for O^2- generation using lucigenin chemiluminescence. […] Thus, AF EGMs in HF are very sensitive to acute blockade of NADPH oxidase and mitochondrial ROS and AF EGM organization in response to ROS blockade closely correlates with the amount of O^2- in underlying tissue.

AF EGMs in HF [2] = assay: EGM-guided targeted gene injection at ROS responsive PLA quadrant in HF dog, AF EGM mapping; assay type: in vivo; conditions: one HF dog, given during AF, 10 mg/kg, before gene injection
Protocol: In one dog, HF was induced by RV pacing at 240 bpm×3 weeks. AF was then induced and recorded in the PLA by high density epicardial plaques (130 electrodes; […]). […] Real time analysis of AF EGMs was performed. The PLA was divided into 4 equal quadrants as shown in FIG. 15A and AF characteristics analyzed for each quadrant. […] One week later, AF mapping was performed again, in the absence and presence of apocynin. […] NOX2 expression (assessed by RT-PCR) was 70% lower in the injected quadrant than in neighboring, un-injected PLA.

AF EGMs in a RAP model = assay: Acute ROS blockade in rapid atrial pacing (RAP) persistent AF model, AF EGM mapping; assay type: in vivo, dog
Protocol: RAP: In 2 animals, rapid atrial pacing was performed at 600 bpm for 3-4 weeks to induce persistent AF. Apocynin was given as in HF above.

[3] = HF dogs, induced AF, mito-TEMPO 0.7 mg/kg
[4] = RAP dogs (600 bpm, 3-4 weeks), persistent AF, apocynin given as in HF

| SMILES | time to AF termination after administration (AF EGMs in HF [1]; HF dogs (RV pacing 240 beats/min, 3-4 weeks), induced AF, 10 mg/kg given acutely, in every experiment) [min] | effect on AF EGM parameters (DF, OI, FI, ShEn) (AF EGMs in HF [1]; [3]) | effect on AF (AF EGMs in HF [2]) | change in DF (AF EGMs in a RAP model; [4]) | change in OI (AF EGMs in a RAP model; [4]) | termination of AF (AF EGMs in a RAP model; RAP dogs, 2 animals) | effect on AF (slowing, termination) (AF EGMs in HF [1]; HF dogs, AF re-induced after apocynin washout (90 minutes), mito-TEMPO 0.7 mg/kg) |
| --- | --- | --- | --- | --- | --- | --- | --- |
| COc1cc(C(C)=O)ccc1O [apocynin, Apocynin] | ≤ 5 | organization of all AF EGM parameters | organization of AF followed by AF termination | significant decrease | increase | In one animal, there was termination of AF |  |
| CC1(C)CC(NC(=O)C[P+](c2ccccc2)(c2ccccc2)c2ccccc2)CC(C)(C)N1[O] [mito-TEMPO] |  | organization of all AF EGM parameters |  |  |  |  | gradual slowing and termination of AF in every animal |

— patent US9907479B2, “Contribution of oxidative stress to AF electrograms” (NORTHWESTERN UNIVERSITY, priority 2013, dated 2018)
